Measurements as given in US4614714A (priority 1982, dated 1986).
“Also recorded” adds a separate entry of the source. Where two headings read alike, the source gives them in different places.

Assays:
[1] = target: T1, novel L-glutamic acid oxidase (Streptomyces sp, UniProt Q8L3C7); experiment: Effects of various additives on the activity of the novel enzyme; assay type: biochemical, Streptomyces sp. X-119-6; set-up: from the cultured product of an actinomycete newly isolated from a soil sample; made in house; host or cells: cultured product of the natural (non-recombinant) actinomycete strain, purified; conditions: additive 1 mM; for Relative activity / activity at 1000 µM: pH 7.4, no addition = 100; for activity at 1000 µM: read-out: Relative activity
T1 sequence (Q8L3C7 15-390 limits assumed): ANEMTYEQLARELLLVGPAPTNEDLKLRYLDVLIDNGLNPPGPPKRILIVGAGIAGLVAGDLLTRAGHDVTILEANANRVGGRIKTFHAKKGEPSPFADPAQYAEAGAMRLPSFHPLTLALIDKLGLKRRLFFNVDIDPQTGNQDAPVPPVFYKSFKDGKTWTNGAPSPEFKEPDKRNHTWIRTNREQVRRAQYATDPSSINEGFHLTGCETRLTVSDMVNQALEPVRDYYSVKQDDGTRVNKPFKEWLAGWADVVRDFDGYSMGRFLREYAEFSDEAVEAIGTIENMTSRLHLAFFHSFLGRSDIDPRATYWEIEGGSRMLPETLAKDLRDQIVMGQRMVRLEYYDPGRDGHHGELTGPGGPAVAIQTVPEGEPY
T1 sequence (Q8L3C7 391-520 limits assumed): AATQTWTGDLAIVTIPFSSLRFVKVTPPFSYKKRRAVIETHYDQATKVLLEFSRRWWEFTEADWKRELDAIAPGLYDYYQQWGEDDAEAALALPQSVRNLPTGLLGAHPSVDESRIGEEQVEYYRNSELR
T1 sequence (Q8L3C7 521-701 limits assumed): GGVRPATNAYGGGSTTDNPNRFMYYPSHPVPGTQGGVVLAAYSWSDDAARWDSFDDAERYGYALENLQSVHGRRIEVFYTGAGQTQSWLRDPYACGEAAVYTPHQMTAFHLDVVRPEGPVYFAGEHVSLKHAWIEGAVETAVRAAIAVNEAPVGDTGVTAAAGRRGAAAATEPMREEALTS

[2] = target: T2, immobilized L-glutamic acid oxidase (Streptomyces sp, UniProt Q8L3C7); experiment: Responses of the L-glutamic acid sensor of Example C1 to various amino acids; assay type: biochemical, Streptomyces sp. X-119-6
T2 construct: from the cultured product of an actinomycete newly isolated from a soil sample; made in house; host or cells: cultured product of the natural (non-recombinant) actinomycete strain; immobilized on a Cellophane membrane with glutaraldehyde
T2 sequence (Q8L3C7 15-390 limits assumed): T1 sequence (Q8L3C7 15-390 limits assumed)
T2 sequence (Q8L3C7 391-520 limits assumed): T1 sequence (Q8L3C7 391-520 limits assumed)
T2 sequence (Q8L3C7 521-701 limits assumed): T1 sequence (Q8L3C7 521-701 limits assumed)
Method: In FIG. 18, the sample solution 2 injected through inlet 1 is transferred by a peristaltic pump 4 together with oxygen saturated buffer 3 into a cell 5.
The results obtained by the measurement are shown as relative responses. The reaction was carried out in 0.1M of acetic acid-sodium acetate buffer at pH 5.5 and 30° C.

[3] = tested on: glutamic acid oxidase (known enzyme); conditions: cited from earlier work
[4] = target: T1, novel L-glutamic acid oxidase; experiment: Substrate specificity of the novel enzyme, oxygen electrode method; conditions: for activity of the novel enzyme (in words): pH 7.4
Method: The concentration of each substrate was 10 mM, and the reactions were carried out at pH 7.4 (0.1 M potassium phosphate buffer) and pH 6.0 (0.1 M acetate buffer).
That is, 1 ml of 0.1 M potassium phosphate buffer (pH 7.4) containing 10 mM sodium L-glutamate was charged into an oxygen electrode cell and 10 μl of an enzyme solution was added thereto to measure the oxygen consumption rate. One unit of enzyme was determined as the amount of enzyme which consumes 1μ mol of oxygen per minute at 30° C. in the absence of catalase (unit: hereinafter abbreviated as "U").

[5] = tested on: glutamic acid oxidase (known enzyme); conditions: cited from earlier work; remark: listed apart in the source
[6] = tested on: lyophilized cell of E. coli, which exhibits L-glutamic acid decarboxylase activity; conditions: microorganism electrode, glutamic acid = 100; cited from earlier work
[7] = pH 5.5; read-out: Relative response (%)
[8] = pH 6, read-out: Relative Activity (%) pH 6.0
[9] = pH 7.4, read-out: Relative Activity (%) pH 7.4
[10] = pH 5.5, read-out: Relative response (%)
[11] = pH 6, read-out: Relative Activity (%) pH 6.0, substrate 10 mM, pH 6.0 (0.1 M acetate buffer), relative to L-glutamic acid
[12] = pH 7.4, read-out: Relative Activity (%) pH 7.4, substrate 10 mM, pH 7.4 (0.1 M potassium phosphate buffer), relative to L-glutamic acid

## O=S(=O)([O-])[O-].[Zn+2] [ZnSO4]
[1]
  Relative activity: 90.3

## N[C@@H](Cc1c[nH]cn1)C(=O)O [L-Histidine]
[2]; [7]
  activity at 2000 µM: < 0.1%
[3]; relative to L-glutamic acid
  activity of the known enzyme: 6.8%
[3]; velocity of enzymatic reaction for L-glutamic acid given as 100
  relative activity of the known enzyme: 6.8
[4]; [8]
  activity at 10000 µM: < 0.1%
[4]
  activity of the novel enzyme (in words): substantially no activity
[4]; [9]
  activity at 10000 µM: < 0.1%

## [Cu+] [copper ions]
[5]
  inhibition of the known enzyme (in words): Substantially completely inhibited; also recorded: markedly inhibited

## NCCC[C@H](N)C(=O)O [L-Ornithine]
[2]; [10]
  activity at 2000 µM: < 0.1%
[4]; [11]
  activity at 10000 µM: < 0.1%
[4]; [12]
  activity at 10000 µM: < 0.1%

## C[C@@H](O)[C@H](N)C(=O)O [L-Threonine]
[2]; [7]
  activity at 2000 µM: < 0.1%
[4]; [8]
  activity at 10000 µM: < 0.1%
[4]; [9]
  activity at 10000 µM: < 0.1%

## N[C@@H](Cc1ccccc1)C(=O)O [L-Phenylalanine]
[2]; [7]
  activity at 2000 µM: < 0.1%
[4]; [8]
  activity at 10000 µM: < 0.1%
[4]; [9]
  activity at 10000 µM: < 0.1%

## N[C@@H](Cc1c[nH]c2ccccc12)C(=O)O [Tryptophan]
[6]
  Relative sensitivity ratio: 0.4

## c1cnc2c(c1)ccc1cccnc12 [o-phenanthroline]
[1]
  activity at 1000 µM: 97.8%

## NC(=O)C[C@H](N)C(=O)O [L-Asparagine]
[2]; [7]
  activity at 2000 µM: < 1%
[4]; [8]
  activity at 10000 µM: < 0.1%
[4]; [9]
  activity at 10000 µM: < 0.1%

## O=C(O)[C@@H]1CCCN1 [L-Proline]
[2]; [10]
  activity at 2000 µM: < 0.1%
[4]; [11]
  activity at 10000 µM: < 0.1%
[4]; [12]
  activity at 10000 µM: < 0.1%

## O=S(=O)([O-])[O-].[Mn+2] [MnSO4]
[1]
  Relative activity: 102.1

## N[C@@H](Cc1c[nH]c2ccccc12)C(=O)O [L-Tryptophan]
[2]; [10]
  activity at 2000 µM: < 0.1%

## N[C@@H](CSSC[C@H](N)C(=O)O)C(=O)O [Cystine]
[6]
  Relative sensitivity ratio: 0.4

## [Ca+2].[Cl-].[Cl-] [CaCl2]
[1]
  Relative activity: 100.0

## CC(C)C[C@H](N)C(=O)O [L-Leucine]
[2]; [10]
  activity at 2000 µM: < 0.1%
[4]; [11]
  activity at 10000 µM: < 0.1%
[4]; [12]
  activity at 10000 µM: < 0.1%

## CC[C@H](C)[C@H](N)C(=O)O [L-Isoleucine]
[2]; [10]
  activity at 2000 µM: < 0.1%
[4]; [11]
  activity at 10000 µM: < 0.1%
[4]; [12]
  activity at 10000 µM: < 0.1%

## O=S(=O)([O-])[O-].O=S(=O)([O-])[O-].O=S(=O)([O-])[O-].[Al+3].[Al+3] [Al2 (SO4)3]
[1]
  Relative activity: 93.8

## [Cl-].[K+] [KCl]
[1]
  Relative activity: 111.1

## C[C@H](N)C(=O)O [Alanine]
[6]
  Relative sensitivity ratio: 0.5

## mercury ions
[5]
  inhibition of the known enzyme (in words): Substantially completely inhibited

## [Cl][Cu][Cl] [CuCl2, cupric chloride]
[5]
  inhibition of the known enzyme (in words): completely inhibited
[1]; pH 7.4
  inhibition of the activity of the novel enzyme (in words): not inhibited at all

## O=S(=O)([O-])[O-].[Li+].[Li+] [Li2 SO4]
[1]
  Relative activity: 93.8

## C[C@H](N)C(=O)O [L-Alanine]
[2]; [10]
  activity at 2000 µM: < 0.1%
[4]; [11]
  activity at 10000 µM: < 0.1%
[4]; [12]
  activity at 10000 µM: < 0.1%

## CCN(CC)C(=S)S [DDTC, diethyldithiocarbamate]
[1]
  activity at 1000 µM: 101%

## N[C@H](CCC(=O)O)C(=O)O [D-Glutamic acid]
[2]; [7]
  activity at 2000 µM: < 0.1%
[4]; [11]
  activity at 10000 µM: < 0.1%
[4]
  activity of the novel enzyme (in words): substantially no activity
[4]; [12]
  activity at 10000 µM: < 0.1%

## [Cl][Ni][Cl] [NiCl2]
[1]
  Relative activity: 96.5
